Measured values: the supplement of paper PMC7796163
± gives the uncertainty stated by the source.

What was measured:
Assay in all cases: CYP enzyme activity (probe substrate metabolite formation) fold change vs solvent control; higher = stronger induction of CYP activity
Conditions in all cases: HepaRG
[1] = target: CYP2C19 (UniProt P33261)
Procedure: (§1)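 Differentiated HepaRG cells were treated with 1, 5 or 10 µM of each PAH (0.5% DMSO) for 12, 24 or 48 h, then incubated for 3 h at 37 °C with a cocktail of isoform-specific CYP substrates (phenacetin for CYP1A2, bupropion for CYP2B6, amodiaquine for CYP2C8, tolbutamide for CYP2C9, mephenytoin for CYP2C19, propafenone for CYP2D6, atorvastatin for CYP3A4). Metabolite formation was quantified by LC-MS as a measure of CYP activity and reported as fold change over solvent control (mean ± SD, n=3). Values below the LLOQ were set to half the LLOQ.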

[2] = target: CYP2C9 (UniProt P11712)
CYP2C9, sequence (P11712 whole entry): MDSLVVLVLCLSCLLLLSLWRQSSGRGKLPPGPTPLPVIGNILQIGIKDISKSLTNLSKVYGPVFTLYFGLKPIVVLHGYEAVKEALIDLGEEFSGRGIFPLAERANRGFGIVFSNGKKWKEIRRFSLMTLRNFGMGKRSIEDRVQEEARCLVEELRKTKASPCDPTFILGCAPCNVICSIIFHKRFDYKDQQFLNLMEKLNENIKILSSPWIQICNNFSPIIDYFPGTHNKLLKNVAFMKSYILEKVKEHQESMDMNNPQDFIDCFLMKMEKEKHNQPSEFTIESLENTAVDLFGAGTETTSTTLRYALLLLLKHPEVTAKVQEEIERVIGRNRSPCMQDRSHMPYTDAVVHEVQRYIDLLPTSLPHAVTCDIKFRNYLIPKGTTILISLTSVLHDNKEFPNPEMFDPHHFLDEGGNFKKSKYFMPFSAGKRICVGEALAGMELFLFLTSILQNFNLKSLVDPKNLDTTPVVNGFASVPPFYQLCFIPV
Procedure: as §1

[3] = target: T1, CYP1A2 (UniProt P05177)
T1 sequence (whole entry): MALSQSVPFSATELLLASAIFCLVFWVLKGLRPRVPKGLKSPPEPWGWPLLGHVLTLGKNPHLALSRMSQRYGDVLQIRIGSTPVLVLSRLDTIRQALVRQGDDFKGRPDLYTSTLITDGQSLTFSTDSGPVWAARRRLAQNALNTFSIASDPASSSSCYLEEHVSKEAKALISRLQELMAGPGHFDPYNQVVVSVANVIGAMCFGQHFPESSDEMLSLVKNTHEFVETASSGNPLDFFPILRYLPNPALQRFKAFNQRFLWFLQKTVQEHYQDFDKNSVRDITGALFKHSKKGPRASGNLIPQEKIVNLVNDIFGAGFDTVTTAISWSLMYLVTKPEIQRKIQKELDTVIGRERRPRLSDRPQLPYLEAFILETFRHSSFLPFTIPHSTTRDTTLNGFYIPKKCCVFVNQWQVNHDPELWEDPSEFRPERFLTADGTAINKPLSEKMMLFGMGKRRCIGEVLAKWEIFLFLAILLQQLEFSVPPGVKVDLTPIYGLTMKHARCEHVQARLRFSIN
Procedure: as §1

[4] = target: T2, CYP2C8 (UniProt P10632)
T2 sequence (whole entry): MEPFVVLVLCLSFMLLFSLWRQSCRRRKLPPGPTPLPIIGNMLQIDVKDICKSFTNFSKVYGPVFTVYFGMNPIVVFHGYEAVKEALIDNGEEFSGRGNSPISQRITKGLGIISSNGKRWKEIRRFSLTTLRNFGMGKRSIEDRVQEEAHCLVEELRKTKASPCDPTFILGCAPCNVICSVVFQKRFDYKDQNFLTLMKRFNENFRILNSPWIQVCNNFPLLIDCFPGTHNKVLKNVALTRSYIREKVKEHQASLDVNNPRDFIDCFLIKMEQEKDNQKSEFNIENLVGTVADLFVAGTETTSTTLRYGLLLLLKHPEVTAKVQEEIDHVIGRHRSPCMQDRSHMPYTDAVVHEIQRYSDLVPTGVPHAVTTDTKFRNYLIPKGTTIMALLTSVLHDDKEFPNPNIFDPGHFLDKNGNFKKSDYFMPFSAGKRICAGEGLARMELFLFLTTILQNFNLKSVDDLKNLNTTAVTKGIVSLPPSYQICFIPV
Procedure: as §1

[5] = target: CYP3A4 (UniProt P08684)
CYP3A4, sequence (P08684 whole entry): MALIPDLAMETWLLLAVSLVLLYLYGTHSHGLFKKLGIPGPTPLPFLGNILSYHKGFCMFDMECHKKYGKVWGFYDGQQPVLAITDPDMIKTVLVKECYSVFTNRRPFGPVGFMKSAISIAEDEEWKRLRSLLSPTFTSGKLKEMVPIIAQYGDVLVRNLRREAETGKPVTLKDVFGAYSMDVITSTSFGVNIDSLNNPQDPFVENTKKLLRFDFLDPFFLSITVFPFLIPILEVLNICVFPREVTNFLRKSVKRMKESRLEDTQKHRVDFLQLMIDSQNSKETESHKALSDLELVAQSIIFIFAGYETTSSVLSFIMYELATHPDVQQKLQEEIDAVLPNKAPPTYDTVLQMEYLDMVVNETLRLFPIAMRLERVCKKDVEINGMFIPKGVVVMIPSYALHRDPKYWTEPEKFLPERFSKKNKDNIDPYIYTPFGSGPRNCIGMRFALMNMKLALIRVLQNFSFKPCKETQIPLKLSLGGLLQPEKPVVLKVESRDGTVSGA
Procedure: as §1

[6] = target: CYP2D6 (UniProt P10635)
CYP2D6, sequence (P10635 whole entry): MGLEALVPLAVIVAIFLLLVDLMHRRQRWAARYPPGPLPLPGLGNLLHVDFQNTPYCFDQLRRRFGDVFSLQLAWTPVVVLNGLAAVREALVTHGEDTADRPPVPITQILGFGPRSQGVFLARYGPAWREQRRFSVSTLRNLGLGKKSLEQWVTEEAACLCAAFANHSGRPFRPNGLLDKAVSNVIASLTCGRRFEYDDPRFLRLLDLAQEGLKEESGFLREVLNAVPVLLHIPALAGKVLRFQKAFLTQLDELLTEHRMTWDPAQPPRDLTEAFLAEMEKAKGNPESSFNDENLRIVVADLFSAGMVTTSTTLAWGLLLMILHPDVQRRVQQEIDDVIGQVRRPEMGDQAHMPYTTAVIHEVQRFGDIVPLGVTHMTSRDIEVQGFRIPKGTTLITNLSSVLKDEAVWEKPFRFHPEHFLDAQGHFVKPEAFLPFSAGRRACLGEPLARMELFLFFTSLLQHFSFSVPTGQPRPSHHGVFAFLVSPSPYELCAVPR
Procedure: as §1

[7] = target: T3, CYP2B6 (UniProt P20813)
T3 sequence (whole entry): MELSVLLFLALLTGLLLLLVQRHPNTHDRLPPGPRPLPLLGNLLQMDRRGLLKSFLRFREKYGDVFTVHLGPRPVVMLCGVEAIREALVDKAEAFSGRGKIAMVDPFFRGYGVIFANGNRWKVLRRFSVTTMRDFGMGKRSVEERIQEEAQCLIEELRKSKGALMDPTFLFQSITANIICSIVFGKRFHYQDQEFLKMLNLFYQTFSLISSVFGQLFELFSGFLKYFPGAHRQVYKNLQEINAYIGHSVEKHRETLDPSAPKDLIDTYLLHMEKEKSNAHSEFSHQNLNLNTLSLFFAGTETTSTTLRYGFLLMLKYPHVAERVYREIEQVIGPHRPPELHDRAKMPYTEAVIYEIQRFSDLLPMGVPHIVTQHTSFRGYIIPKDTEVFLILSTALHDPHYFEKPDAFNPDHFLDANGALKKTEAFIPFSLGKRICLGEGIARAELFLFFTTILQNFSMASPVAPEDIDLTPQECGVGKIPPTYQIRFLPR
Procedure: as §1

CYP2C19, sequence (P33261 whole entry, canonical isoform): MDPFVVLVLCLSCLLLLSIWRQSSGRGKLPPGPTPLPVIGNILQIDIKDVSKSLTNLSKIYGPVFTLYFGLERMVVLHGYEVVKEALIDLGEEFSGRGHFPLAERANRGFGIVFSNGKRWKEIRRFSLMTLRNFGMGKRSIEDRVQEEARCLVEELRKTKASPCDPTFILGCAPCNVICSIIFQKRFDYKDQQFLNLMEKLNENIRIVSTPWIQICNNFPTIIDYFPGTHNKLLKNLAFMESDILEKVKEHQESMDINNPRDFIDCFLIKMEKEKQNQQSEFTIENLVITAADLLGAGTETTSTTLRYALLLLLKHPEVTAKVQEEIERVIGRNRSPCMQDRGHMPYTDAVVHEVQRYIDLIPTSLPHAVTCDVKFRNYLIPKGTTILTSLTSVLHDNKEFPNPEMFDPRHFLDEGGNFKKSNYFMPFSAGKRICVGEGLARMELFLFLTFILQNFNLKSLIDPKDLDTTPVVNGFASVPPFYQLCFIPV

c1ccc2c3c(ccc2c1)-c1cccc2cccc-3c12 [benzo[j]fluoranthene]
CYP enzyme activity
Conditions	[1]	[2]	[3]	[4]	[5]	[6]	[7]
1 µM, treatment time 12 h	0.86	0.852	3.57	0.921	0.809	1.28	1.02
1 µM, treatment time 24 h	0.826	0.88	2.09	0.903	0.702	0.87	1.27
1 µM, treatment time 48 h	0.948	0.835	1.1	0.974	0.666	0.759	0.856
5 µM, treatment time 12 h	0.97	0.826	6.59	0.894	0.883	1.94	1.21
5 µM, treatment time 24 h	0.9	0.844	12.1	0.779	0.728	1.61	2.01
5 µM, treatment time 48 h	0.882	0.734	4.57	0.798	0.694	0.711	1.32
10 µM, treatment time 12 h	0.84	0.731	1.21	0.785	0.916	1.13	1.04
10 µM, treatment time 24 h	0.867	0.771	23	0.751	0.715	2.94	2.03
10 µM, treatment time 48 h	0.914	0.75	9.96	0.688	0.636	0.838	1.83

c1ccc2cc3c(cc2c1)-c1cccc2cccc-3c12 [benzo[k]fluoranthene]
CYP enzyme activity
Conditions	[1]	[2]	[3]	[4]	[5]	[6]	[7]
1 µM, treatment time 12 h	0.834	0.808	7.62	0.918	0.73	1.93	0.673
1 µM, treatment time 24 h	0.702	0.744	15.3	0.793	0.633	1.9	0.763
1 µM, treatment time 48 h	0.832	0.704	25.3	0.812	0.544	1.36	0.806
5 µM, treatment time 12 h	0.854	0.76	9.06	0.875	0.89	2.35	0.751
5 µM, treatment time 24 h	0.723	0.67	17.8	0.682	0.676	2.71	0.806
5 µM, treatment time 48 h	0.577	0.396	27.3	0.278	0.342	1.62	0.574
10 µM, treatment time 12 h	0.76	0.725	5.83	0.759	0.93	2.05	0.741
10 µM, treatment time 24 h	0.754	0.594	16.9	0.625	0.732	2.98	0.923
10 µM, treatment time 48 h	0.455	0.312	17.5	0.164	0.283	1.49	0.446
